Test results: ChEMBL document CHEMBL1201862, “PubChem BioAssay data set” (2004)
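Method: 48-hour compound exposure of cells in 96-well plates, five concentrations, linear interpolation of endpoints. GI50: concentration for 50% inhibition of growth.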 Activity calls are given as the source filed them. No stated cut-off is given here; in the data, active = GI50 up to about 1.1 µM and inactive = higher.

Key:
Assay in all cases: NCI-60 cell line screen, 48 h
786-0 = tested on: 786-0
A498 = tested on: A498
A549 = tested on: A549
ACHN = tested on: ACHN
BT-549 = tested on: BT-549
CAKI-1 = tested on: CAKI-1
CCRF-CEM = tested on: CCRF-CEM
COLO 205 = tested on: COLO 205
DU-145 = tested on: DU-145
EKVX = tested on: EKVX
HCC 2998 = tested on: HCC 2998
HCT-116 = tested on: HCT-116
HCT-15 = tested on: HCT-15
HL-60 = tested on: HL-60
HOP-62 = tested on: HOP-62
HT-29 = tested on: HT-29
Hs-578T = tested on: Hs-578T
IGROV-1 = tested on: IGROV-1
K562 = tested on: K562
KM12 = tested on: KM12
LOX IMVI = tested on: LOX IMVI
M14 = tested on: M14
MCF7 = tested on: MCF7
MDA-MB-231 = tested on: MDA-MB-231
MDA-MB-435 = tested on: MDA-MB-435
MDA-N = tested on: MDA-N
MOLT-4 = tested on: MOLT-4
Malme-3M = tested on: Malme-3M
NCI-H226 = tested on: NCI-H226
NCI-H23 = tested on: NCI-H23
NCI-H460 = tested on: NCI-H460
NCI-H522 = tested on: NCI-H522
OVCAR-8 = tested on: OVCAR-8
PC-3 = tested on: PC-3
RPMI-8226 = tested on: RPMI-8226
SF-268 = tested on: SF-268
SF-295 = tested on: SF-295
SF-539 = tested on: SF-539
SK-MEL-28 = tested on: SK-MEL-28
SK-MEL-5 = tested on: SK-MEL-5
SK-OV-3 = tested on: SK-OV-3
SN12C = tested on: SN12C
SNB-19 = tested on: SNB-19
SNB-75 = tested on: SNB-75
SR = tested on: SR
SW-620 = tested on: SW-620
T47D = tested on: T47D
TK-10 = tested on: TK-10
UACC-257 = tested on: UACC-257
UACC-62 = tested on: UACC-62
UO-31 = tested on: UO-31
HOP-92 = tested on: HOP-92
OVCAR-3 = tested on: OVCAR-3
OVCAR-4 = tested on: OVCAR-4
OVCAR-5 = tested on: OVCAR-5
RXF 393 = tested on: RXF 393
SK-MEL-2 = tested on: SK-MEL-2
U-251 = tested on: U-251

C=CCOCn1ccc(=O)[nH]c1=O
GI50 (786-0): > 100 µM (inactive)
GI50 (A498): > 100 µM (inactive)
GI50 (A549): > 100 µM (inactive)
GI50 (ACHN): > 100 µM (inactive)
GI50 (BT-549): > 100 µM (inactive)
GI50 (CAKI-1): > 100 µM (inactive)
GI50 (CCRF-CEM): > 100 µM (inactive)
GI50 (COLO 205): > 100 µM (inactive)
GI50 (DU-145): > 100 µM (inactive)
GI50 (EKVX): > 100 µM (inactive)
GI50 (HCC 2998): > 100 µM (inactive)
GI50 (HCT-116): > 100 µM (inactive)
GI50 (HCT-15): > 100 µM
GI50 (HL-60): > 100 µM (inactive)
GI50 (HOP-62): > 100 µM (inactive)
GI50 (HT-29): > 100 µM (inactive)
GI50 (Hs-578T): > 100 µM (inactive)
GI50 (IGROV-1): > 100 µM (inactive)
GI50 (K562): > 100 µM (inactive)
GI50 (KM12): > 100 µM (inactive)
GI50 (LOX IMVI): > 100 µM (inactive)
GI50 (M14): > 100 µM (inactive)
GI50 (MCF7): > 100 µM (inactive)
GI50 (MDA-MB-231): > 100 µM (inactive)
GI50 (MDA-MB-435): > 100 µM (inactive)
GI50 (MDA-N): > 100 µM (inactive)
GI50 (MOLT-4): > 100 µM (inactive)
GI50 (Malme-3M): 94.4 µM (inactive)
GI50 (NCI-H226): > 100 µM (inactive)
GI50 (NCI-H23): > 100 µM (inactive)
GI50 (NCI-H460): > 100 µM (inactive)
GI50 (NCI-H522): > 100 µM (inactive)
GI50 (OVCAR-8): > 100 µM (inactive)
GI50 (PC-3): > 100 µM (inactive)
GI50 (RPMI-8226): > 100 µM (inactive)
GI50 (SF-268): > 100 µM (inactive)
GI50 (SF-295): > 100 µM (inactive)
GI50 (SF-539): > 100 µM (inactive)
GI50 (SK-MEL-28): > 100 µM (inactive)
GI50 (SK-MEL-5): > 100 µM (inactive)
GI50 (SK-OV-3): > 100 µM (inactive)
GI50 (SN12C): > 100 µM (inactive)
GI50 (SNB-19): > 100 µM (inactive)
GI50 (SNB-75): > 100 µM (inactive)
GI50 (SR): > 100 µM (inactive)
GI50 (SW-620): > 100 µM (inactive)
GI50 (T47D): > 100 µM (inactive)
GI50 (TK-10): > 100 µM (inactive)
GI50 (UACC-257): > 100 µM (inactive)
GI50 (UACC-62): > 100 µM (inactive)
GI50 (UO-31): > 100 µM (inactive)

O=c1[nH][nH]c(=O)c2c1ccc1oc3ccccc3c12
GI50 (786-0): > 100 µM (inactive)
GI50 (A498): > 100 µM (inactive)
GI50 (A549): > 100 µM (inactive)
GI50 (ACHN): > 100 µM (inactive)
GI50 (BT-549): > 100 µM (inactive)
GI50 (CAKI-1): 45.8 µM (inactive)
GI50 (CCRF-CEM): > 100 µM (inactive)
GI50 (COLO 205): > 100 µM (inactive)
GI50 (DU-145): > 100 µM (inactive)
GI50 (EKVX): 56.2 µM (inactive)
GI50 (HCC 2998): 99.3 µM (inactive)
GI50 (HCT-116): > 100 µM (inactive)
GI50 (HL-60): > 100 µM (inactive)
GI50 (HOP-62): > 100 µM (inactive)
GI50 (HOP-92): > 100 µM (inactive)
GI50 (HT-29): > 100 µM (inactive)
GI50 (Hs-578T): > 100 µM (inactive)
GI50 (IGROV-1): > 100 µM (inactive)
GI50 (K562): > 100 µM (inactive)
GI50 (KM12): > 100 µM (inactive)
GI50 (M14): > 100 µM (inactive)
GI50 (MCF7): > 100 µM (inactive)
GI50 (MDA-MB-231): > 100 µM (inactive)
GI50 (MDA-MB-435): > 100 µM (inactive)
GI50 (MDA-N): > 100 µM (inactive)
GI50 (MOLT-4): > 100 µM (inactive)
GI50 (Malme-3M): > 100 µM (inactive)
GI50 (NCI-H226): > 100 µM (inactive)
GI50 (NCI-H23): > 100 µM (inactive)
GI50 (NCI-H460): > 100 µM (inactive)
GI50 (NCI-H522): > 100 µM (inactive)
GI50 (OVCAR-3): > 100 µM (inactive)
GI50 (OVCAR-4): > 100 µM (inactive)
GI50 (OVCAR-5): > 100 µM (inactive)
GI50 (OVCAR-8): > 100 µM (inactive)
GI50 (PC-3): > 100 µM (inactive)
GI50 (RPMI-8226): > 100 µM (inactive)
GI50 (RXF 393): > 100 µM (inactive)
GI50 (SF-268): > 100 µM (inactive)
GI50 (SF-295): > 100 µM (inactive)
GI50 (SF-539): > 100 µM (inactive)
GI50 (SK-MEL-28): > 100 µM (inactive)
GI50 (SK-MEL-2): > 100 µM (inactive)
GI50 (SK-MEL-5): > 100 µM (inactive)
GI50 (SK-OV-3): > 100 µM (inactive)
GI50 (SN12C): > 100 µM (inactive)
GI50 (SNB-19): > 100 µM (inactive)
GI50 (SNB-75): > 100 µM (inactive)
GI50 (SR): > 100 µM (inactive)
GI50 (SW-620): > 100 µM (inactive)
GI50 (T47D): > 100 µM (inactive)
GI50 (TK-10): > 100 µM (inactive)
GI50 (U-251): > 100 µM (inactive)
GI50 (UACC-257): > 100 µM (inactive)
GI50 (UACC-62): > 100 µM (inactive)
GI50 (UO-31): > 100 µM (inactive)
